Reference: US10702572B2, “Methods and compounds to suppress viral genome release and packaging” (Carnegie Mellon University, priority 2015, dated 2020)
Where two headings read alike, the source gives them in different places. Where no end group is shown, it is not given here.

How the values were obtained:
[1] = cited from earlier work
[2] = LD50 (species not stated); assay type: in vivo; settings: conversion in brackets
phage λ = experiment: Intracapsid DNA transition temperature by ITC and SAXS; set-up: species or system bacteriophage λ; settings: 78% WT DNA length phage λ, 20 mM EDTA added to 10 mM MgCl2 Tris-buffer
Excerpt: WT bacteriophage λ cI857, with a genome length of 48.5 kb was produced by thermal induction of lysogenic E. coli strain AE1 derived from the 52773 strain. Two phage λ mutants with shorter genome lengths (78 and 94% of the WT DNA length) were produced using a similar procedure. The receptor was the LamB protein purified from pop 154, a strain of E. coli K12 in which the LamB gene has been transduced from Shigella sonnei 3070. Phage and LamB purification details are described in Evilevitch A., et al., Osmotic pressure inhibition of DNA ejection from phage. Proc. Natl. Acad. Sci. U.S.A. 2003; 100:9292-9295 and Ivanovska I., et al., Internal DNA pressure modifies stability of WT phage. Proc. Natl. Acad. Sci. U.S.A. 2007; 104:9603-9608.
All calorimetric measurements were performed using the MicroCal iTC200 system manufactured by GE Healthcare, Life Sciences. […] J. Mol. Biol. 2010; 395:1079-1087.
Small angle X-ray scattering (SAXS) measurements were carried out at the 12-ID B station at the Advanced Photon Source at Argonne National Laboratory. A 12-KeV X-ray beam was used to illuminate the sample with an overall scattering vector q range from 0.006 to 0.850 Å-1. A total of 120 μl of phage solution (˜5×1013 pfu/ml) was injected into a flow-through glass capillary and the solution was oscillated during the SAXS measurement with a flow rate of 10 μl/s. Forty scans with 1 s X-ray exposure time were collected and averaged for each sample. A buffer solution of the dialysis buffer for phage samples was measured using the same SAXS setup, which was further subtracted as the background. After the background subtraction, the scattered intensity I versus q was plotted and the DNA peak region was truncated from 0.18 Å-1 to 0.33 Å-1. This DNA diffraction peak was fitted with a Gaussian curve plus a linear background using function (1), where q0 is the peak center, w is the peak width, A0 is the peak area, k is the slope of the linear background and c is the offset.
(§1) [formula] […] Single-Molecule Fluorescence Measurements of Phage Ejection Ensemble Kinetics.
ITC and SAXS assays were used to determine DNA transition temperatures for WT λ-DNA length phage in MgCl2 Tris-buffer with MgCl2 concentrations varied between 5 and 50 mM, see FIGS. 3A-3C. The intracapsid DNA transition occurs at temperature T*, corresponding to either a discontinuity in the linear dependence of ΔHej on temperature (FIG. 3A) or to an abrupt change in the linear decay of the DNA diffraction peak area versus temperature measured by SAXS (FIG. 3B). DNA transition temperatures as a function of Mg-concentration determined by both techniques are in good agreement with each other and are summarized in FIG. 3C. […] However, the inventors have previously shown that at DNA packing density in phage λ, the screening effect of Mg-ions will become progressively smaller with increasing Mg-concentration due to the counter-ion saturation (Evilevitch A., et al., Effects of salt concentrations and bending energy on the extent of ejection of phage genomes. Biophys. J. 2008; 94:1110-1120). Furthermore, if the Mg ion concentration continues to increase, the counterions are forced into regions on the helices that begin to increase the effective repulsions between packaged DNA strands. […]

[3] = tested on: packaged viral DNA in the capsid; settings: low-salt buffer, Mg2+ removed by EDTA
Excerpt: as §1
Phage particles were imaged using a Nikon 2000E2 microscope with a spinning disk confocal scan head (Yokagawa Industries, Tokyo, Japan).

cell membrane = settings: not told; cited from earlier work
HSV-1, HSV-2, VZV, HCMV = experiment: Antiviral screening study of condensing compounds; assay type: cell-based; settings: result in words
Method: PAMAM Dendrimer G0, branched polyethylenimine (bPEI), Arg5+, DAB-AM-4, and DAB-AM-8 were utilized as test compounds. These compounds are described above.
Monolayers of HFF cells were prepared in six-well plates and incubated at 37° C. for 2 d to allow the cells to reach confluency. Media was then aspirated from the wells and 0.2 ml of virus was added to each of three wells to yield 20-30 plaques in each well. The virus was allowed to adsorb to the cells for 1 h and the plates were agitated every 15 minutes. Compounds were diluted in assay media consisting of MEM with Earl's salts supplemented with 2% FBS, L-glutamine, penicillin, and gentamycin. Solutions ranging from 300 μM to 0.1 μM were added to duplicate wells and the plates were incubated for various times, depending on the virus used. For HSV-1 and -2, the monolayers were then stained with 1% crystal violet in 20% methanol and the unbound dye removed by washing with dH2O. For all other assays, the cell monolayer was stained with 1% Neutral Red solution for 4 h then the stain was aspirated and the cells were washed with PBS. For all assays, plaques were enumerated using a stereomicroscope and the concentration of compound that reduced plaque formation by 50% (EC50) was interpolated from the experimental data.

O=C(O)[C@@H](S)[C@@H](S)C(=O)O [DMSA, meso-2,3-Dimercaptosuccinic acid]
LD50 ([1]; species and route not given): 5011 mg/kg
LD50 as concentration [2]: ~27.5 mM

O=C(O)CN(CCN(CC(=O)O)CC(=O)O)CC(=O)O [EDTA, Ethylenediaminetetraacetic acid]
DNA transition temperature T* (phage λ): ~36 °C
DNA ejection from the capsid [3]: essentially stalled
infection [3]: no infection is observed

O=C(O)CN(CCOCCOCCN(CC(=O)O)CC(=O)O)CC(=O)O [EGTA, Ethylene glycol-bis(2-aminoethylether)-N,N,N′,N′-tetraacetic acid]
LD50 ([1]; in vivo): 3587 mg/kg
LD50 as concentration [2]: ~9.5 mM

RRRRR [Arg5+]
permeation of the cell membrane (cell membrane): permeate the cell membrane
antiviral activity in the screening study (HSV-1, HSV-2, VZV, HCMV): showed antiviral activity
